# Results taken from patent publication US10548906B2, “Methods of promoting hepatic regeneration” (Intercept Pharmaceuticals, Inc., priority 2015, dated 2020).
# What was measured:
# [1] = test system: Ki67-positive hepatocytes; assay: Ki67 staining of liver sections, hepatocyte proliferation after PVE (Example 5); format: in vivo, rabbit
# Method: (§1) Liver tissue (left lateral and caudal lobes) was fixed in buffered formalin for 48 h, and subsequently dehydrated and embedded in paraffin. Four-micron sections of liver tissue were cut and stained with standard hematoxylin and eosin stain. Sections were scored for lobular and portal inflammation according to Table 1. Additionally, liver sections were stained with Ki67 antibodies to quantify hepatocyte proliferation, and hematoxylin counterstain as described in detail previously (van der Loos C M, et al. J Histochern Cytochern 2013; 61(1):11-8; Marsman H A, et al. Br J Surg 2013; 100(5):674-83). Ki67-positive hepatocytes were counted in a total of five high power fields per animal, by a hepatopathologist (JV) blinded to the group allocation. Liver histology was assessed at day 3 and 7 for n=6 per treatment group.
# [2] = test system: New Zealand White rabbits; assay: Liver injury after PVE: clinical chemistry and H&E histology (Example 5); format: in vivo, rabbit
# Method: as §1
# Serum alanine transaminase (ALT), amino aspartate aminotransferase (AST), gamma-glutamyl transferase (γGT), and alkaline phosphatase (ALP) were determined by the Department of Clinical Chemistry (Academic Medical Center, Amsterdam, The Netherlands) using a Cobas 8000 modular analyzer (Roche, Basel, Switzerland) on samples obtained from 12 animals per treatment group.
# [3] = test system: Adult female rabbits; assay: PVE in rabbits: CLV and bile salts (Example 5a); format: in vivo, rabbit; conditions: day 3 after PVE
# Method: (§2) Adult female rabbits received vehicle or the FXR agonist obeticholic acid (OCA; 10 mg/kg, daily oral gavage) for 7 days prior to, and after embolization (day 0) of the cranial liver lobes. Effectiveness of PVE was confirmed by portography, and caudal liver volume (CLV) was analyzed by CT-volumetric analysis at days −7, −1, +3 and +7. Rabbits were sacrificed at day +3 and +7 (n=5-6 per group).
# [4] = test system: FXR; assay: Bile salt homeostasis/proliferation related transcript levels in liver after PVE (Example 5a); format: in vivo, rabbit
# Method: as §2
# [5] = test system: Fxr; assay: qRT-PCR of proliferation-, Fxr- and bile acid homeostasis-related genes in liver and ileum of rBDL rats (Example 6); format: in vivo, rat
# Method: Transcriptional analysis was performed [Olthof 2015]. Liver samples were homogenized with a MagNA Lyser and total RNA was extracted with the High Pure RNA Tissue Kit (both from Roche Applied Sciences, Penzberg, Germany). One μg of RNA was reverse transcribed to cDNA using the SensiFAST cDNA Synthesis Kit (Bioline, London, UK) according to manufacturer's instructions. Quantitative reverse transcriptase polymerase chain reaction was performed on a LightCycler 480 (Roche, Basel, Switzerland) using SensiFAST SYBR No-ROX mix (Bioline). Fluorescence data was processed and analyzed and normalized to hypoxanthine-guanine phosphoribosyltransferase (Hprt) for ileum samples, and the geometric mean of ubiquitin C (Ubc) and beta-2-microglobulin (B2m) for liver samples. […] Primers were designed using NCBI Primer Blast (http://www.ncbi.nlm.nih.gov/tools/primer-blast/) to span an intron or exon-exon junction and prevent amplification of residual genomic DNA (Table 2). Melting curve analysis and agarose gel electrophoresis were used to validate primer specificity.
# [6] = test system: Wistar rats; assay: Liver regrowth after 70% partial hepatectomy in post-cholestatic rats (Example 6); format: in vivo
# From the text: Seven days after BDL or sham operation, all rats were subjected to 70% PHx [DeGraaf 2011]. In all rBDL rats, intestinal bile flow was restored directly prior to PHx by removing the closed cannula tip and inserting the cannula into the duodenum. Animals in all treatment groups were put on regular chow after PHx. OCA treatment was continued after PHx until sacrifice. As depicted in Scheme 1, the study consisted of five experimental groups (n=4-6 animals per group per time point): control (sham), steatosis (MCD), cholestasis (rBDL), combined steatosis and cholestasis (rBDL+MCD), and cholestasis+OCA (rBDL+OCA).
# (§3) At baseline (i.e., directly before PHx) and one to five days after PHx, animals were euthanized under isoflurane anesthesia by exsanguination. Blood samples were collected from the caval vein in heparin-anticoagulated vacutainers (BD, Franklin Lakes, N.J.) and centrifuged for 10 min (3000×g, 4° C.). In rBDL animals sacrificed at baseline, bile was aspirated with a syringe from the dilated extrahepatic bile duct, weighed, and stored at −80° C. The liver and ileum were excised, weighed, loafed, and either fixed in a 10% (vol/vol) neutralized formalin solution (J. T. Baker, Center Valley, Pa.), snap-frozen in liquid nitrogen and stored at −80° C., or collected in RNAlater (Qiagen, Venlo, the Netherlands) and stored at −20° C. Liver regrowth was calculated from the regenerated liver mass, and was expressed as percentage of total liver mass prior to PHx. The projected remnant liver mass was calculated using the weight of the resected liver segments, which represent 70% of the total liver mass. Dry liver weights were measured to correct for hepatic water content [Kloek 2010a].
# (§4) After formalin fixation, liver specimens were dehydrated, paraffin-embedded, and stained with hematoxylin and eosin (H&E), the collagen type I and III stain picrosirius red, or the proliferation marker Ki67 [Marsman 2013]. Semi-quantitative analysis of H&E- and picrosirius red-stained liver histology was performed by an experienced hepatopathologist (JV) blinded to the experimental groups using a scoring system detailed in Table 1. Ki67-positive hepatocyte nuclei were manually counted by two observers (RFG and PBO) in four randomly-selected microscopic fields at 200× magnification.
# [7] = test system: Wistar rats; assay: Hepatobiliary injury markers and histology in rBDL rats before and after PHx (Example 6); format: in vivo, rat
# Method: as §3, §4
# [8] = prior to PHx, vs untreated rBDL
# [9] = prior to PHx, vs control and untreated rBDL
smiles,measurement,setting,value
"CC[C@H]1[C@@H](O)[C@@H]2[C@H](CC[C@]3(C)[C@@H]([C@H](C)CCC(=O)O)CC[C@@H]23)[C@@]2(C)CC[C@@H](O)C[C@@H]12 [Compound 1, 3α,7α-dihydroxy-6α-ethyl-5β-cholanic acid]",number of Ki67-positive hepatocytes relative to vehicle,[1]; 3 days after PVE,1.6 fold
same,Ki67-positive hepatocytes vs vehicle,[1]; day +3,Increased numbers
same,plasma ALP vs vehicle,[2]; after PVE,slightly higher
same,plasma γGT vs vehicle,[2]; after PVE,slightly higher
same,hepatocellular injury or cholestasis,"[2]; conclusion from ALT, AST, γGT, ALP",did not cause hepatocellular injury or cholestasis
same,histological scoring of H&E sections of the caudal lobe,"[2]; day 3 and 7, vs vehicle, listed as OCA",no differences between groups
same,plasma transaminase levels vs vehicle,[2]; summary,similar
same,increase in CLV,[3],59.3±19.2%
same,expression of Cdc25b vs controls,[4]; atrophic liver segments,+1.1 fold
same,expression of Cdc25b vs controls,[4]; hypertrophic liver segments,+1.6 fold
same,expression of Cyp7a1 vs controls,"[4]; hypertrophied segments, day +3",−7.1 fold
same,expression of Slc51b vs controls,"[4]; hypertrophied segments, day +3",+6.5 fold
same,"hepatic Bsep expression, upregulation",[5]; baseline,~8 fold
same,hepatic Mrp4 expression,[5]; baseline,upregulated
same,hepatic Ntcp expression,[5]; baseline,mildly upregulated
same,hepatic Ostβ expression,[5]; baseline,upregulated
same,hepatocyte Cyp7a1 mRNA level,[5]; baseline,did not alter
same,hepatocyte Shp mRNA level,[5]; baseline,did not alter
same,hepatic Mrp3 expression,"[5]; baseline, vs untreated rBDL",more robust induction
same,liver Fxr mRNA,[5]; day 1 post-PHx,slight decrease
same,hepatic Foxm1 expression,[5]; during liver regeneration after PHx,did not change
same,hepatic Shp transcript levels relative to untreated rBDL and control rats,[5]; first two days after PHx,high transcript levels
same,hepatic Fgfr4 transcript level,"[5]; prior to / on the day of PHx, listed as OCA",markedly downregulated
same,hepatic Stat3 expression,[5]; prior to PHx,considerably upregulated
same,ileal Fxr expression,[5]; prior to PHx,minor downregulation
same,ileal Shp expression,[5]; prior to PHx,marked upregulation
same,"ileal Fgf15 transcription, upregulation","[5]; prior to PHx, rBDL rats",~20 fold
same,hepatic expression of Foxm1,[5]; [8],comparable
same,hepatic expression of Fxr,[5]; [8],comparable
same,hepatic expression of Ccnd1 (CyclinD1),"[5]; prior to PHx, vs untreated rBDL or non-cholestatic animals",more pronounced
same,hepatic Fgfr4 expression,[5]; regrowth phase after PHx,remained low
same,dry weight of the remnant liver,"[6]; at the time of PHx, vs other two groups",higher
same,number of Ki67+ hepatocytes,[6]; day one after PHx,highest
same,mortality,[6]; regeneration phase,no mortality
same,liver regrowth after 70% PHx,[6]; vs untreated rBDL and control rats,stalled
same,bilirubin clearance,[7]; after PHx,lagged marginally
same,decline of ALP levels,[7]; after PHx,~4 fold
same,time to normalization of hepatobiliary injury markers,"[7]; after PHx, rBDL groups, recovery more gradual with OCA",≤ 48 h
same,ALP levels vs other study arms,[7]; during regeneration,remained higher
same,liver injury after hepatectomy,[7]; histology day 5 after PHx,did not exacerbate liver injury after hepatectomy
same,plasma gamma glutamyltransferase,[7]; prior to PHx,followed the same dynamics as ALP
same,plasma alanine aminotransferase (ALT),[7]; [9],considerably higher
same,plasma alkaline phosphatase (ALP),[7]; [9],considerably higher
